Reference: US20180177749A1, “USE OF CYP EXPRESSION TO DIRECT THERAPEUTIC INTERVENTION IN CANCER” (REGENTS OF THE UNIVERSITY OF MINNESOTA, priority 2016, published 2018)
Read-outs that look alike come from different tables or passages of the source.

How the values were obtained:
MCF-10A = assay: Cell growth inhibition, MCF-10A non-transformed breast cell line; type: cell-based; conditions: Homo sapiens, ER−[PR−]
MCF-7 cells [1] = assay: Cellular EET levels by LC-ESI/MS/MS; type: cell-based, human; conditions: metformin 5 mM, 6 hours
Method: Samples were submitted to liquid chromatography-electrospray ionization/multiple reaction monitoring/mass spectrometry (LC-ESI/MRM/MS) analysis in a Thermo Electron Quantum Discovery Max triple quadrupole mass spectrometer (Thermo Finnigan, San Jose, Calif.) coupled with an Agilent 1100 HPLC (Santa Clara, Calif.), using argon as the collision gas. Negative ion monitoring was performed at the following diagnostic product ions: 319 m/z→155 m/z for 8,9-EET; 319 m/z→179 m/z for 11,12-EET; 319 m/z→219 m/z for 14,15-EET; 339 m/z→163 m/z for 8,9-[13C20]EET; 339 m/z→233 m/z for 11,12-[13C20]EET; and 339 m/z→259 m/z for 14,15-[^13C20]EET. Base-line resolution of EET regioisomers was achieved on a Phenomenex Luna C18 (2) reverse phase capillary column (250×0.5 mm, 5-μm particles) using the following mobile phase combinations: isocratic 5% B for 5 min, gradient 5-70% B for 5 min, hold at 70% for 30 min and then 95% for 10 min; A: 0.01% acetic acid in water, B: 0.01% acetic acid in acetonitrile; […] flow rate. A standard curve was obtained by linear regression of the peak area ratio of authentic EET regioisomers against internal standards. The amount of EETs in samples was calculated according to the standard curve. The (±)-5,6-EET regioisomer was not measured because it undergoes rapid internal degradation. […]

MCF-7 cells [2] = assay: Western blot of signaling proteins, MCF-7; type: cell-based, human
Method: RIPA extracts of cells were prepared as described previously, in the presence of protease inhibitors and phosphatase inhibitors. Protein concentrations were determined by the micro-bicinchoninic acid (BCA) method, and 30 μg of protein was used for each lane of the SDS-polyacrylamide gel Western blot. Relative protein expression was estimated using GAPDH or β-actin as an internal standard.

CYP2C8 = biological target: T1, CYP2C8 (Homo sapiens, UniProt P10632); assay: Recombinant microsomal CYP-mediated EET biosynthesis (CYP2C8 Supersomes); type: biochemical; set-up: host or cells: insect cells (microsomes)
T1 sequence (P10632 1-490): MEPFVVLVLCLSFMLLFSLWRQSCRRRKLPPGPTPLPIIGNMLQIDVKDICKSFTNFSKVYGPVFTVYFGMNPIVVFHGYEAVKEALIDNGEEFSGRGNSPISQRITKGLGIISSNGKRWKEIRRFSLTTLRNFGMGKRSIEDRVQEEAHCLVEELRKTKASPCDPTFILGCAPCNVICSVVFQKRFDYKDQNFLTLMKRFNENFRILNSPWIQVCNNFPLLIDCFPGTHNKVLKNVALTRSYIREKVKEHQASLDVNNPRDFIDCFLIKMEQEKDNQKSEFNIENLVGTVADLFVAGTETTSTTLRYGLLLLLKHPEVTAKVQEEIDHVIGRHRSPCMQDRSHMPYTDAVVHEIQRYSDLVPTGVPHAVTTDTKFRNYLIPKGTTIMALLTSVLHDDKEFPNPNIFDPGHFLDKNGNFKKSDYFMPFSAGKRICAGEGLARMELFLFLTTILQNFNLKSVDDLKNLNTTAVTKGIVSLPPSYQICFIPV
Method: Samples were submitted to liquid chromatography-electrospray ionization/multiple reaction monitoring/mass spectrometry (LC-ESI/MRM/MS) analysis in a Thermo Electron Quantum Discovery Max triple quadrupole mass spectrometer (Thermo Finnigan, San Jose, Calif.) coupled with an Agilent 1100 HPLC (Santa Clara, Calif.), using argon as the collision gas. Negative ion monitoring was performed at the following diagnostic product ions: 319 m/z→155 m/z for 8,9-EET; 319 m/z→179 m/z for 11,12-EET; 319 m/z→219 m/z for 14,15-EET; 339 m/z→163 m/z for 8,9-[13C20]EET; 339 m/z→233 m/z for 11,12-[13C20]EET; and 339 m/z→259 m/z for 14,15-[^13C20]EET. Base-line resolution of EET regioisomers was achieved on a Phenomenex Luna C18 (2) reverse phase capillary column (250×0.5 mm, 5-μm particles) using the following mobile phase combinations: isocratic 5% B for 5 min, gradient 5-70% B for 5 min, hold at 70% for 30 min and then 95% for 10 min; A: 0.01% acetic acid in water, B: 0.01% acetic acid in acetonitrile; […] flow rate. A standard curve was obtained by linear regression of the peak area ratio of authentic EET regioisomers against internal standards. The amount of EETs in samples was calculated according to the standard curve. The (±)-5,6-EET regioisomer was not measured because it undergoes rapid internal degradation.
CYP3A4 or 2C8 Supersomes™ (BD Biosciences) were incubated at 37° C. for 30 min in the presence of AA (5 μM) in […] Tris-HCl, pH 7.4, containing 1 mm EDTA and 1 mm NADPH. Reactions were terminated by adding methylene chloride (0.5 ml). Samples were centrifuged at 3,000 rpm for 10 min and 150 μl of the organic phases were evaporated under nitrogen. […] Reaction extracts were chromatographed under the conditions described above, and ions of 319 m/z, corresponding to AA monooxygenation products, were selectively monitored in negative mode. Concentrations of EETs generated by CYP Supersomes™ were calculated by linear regression against standard curve generated with EET standards.

Q: `CCCCCCNC(=N)NC(=N)NCc1ccccc1` [HBB, N1-hexyl-N5-benzyl-biguanide] was tested. Which IC50 (MCF-10A) did it give?
A: 20.5 µM

Q: And the “cellular EET levels” value (MCF-7 cells [1])?
A: doesn't lower total EET levels

Q: And the “dosing for signaling effects relative to metformin (lower)” value (MCF-7 cells [2])?
A: 250 fold

Q: And the “mTOR, S6 kinase and ERK” value (MCF-7 cells [2]; 20 μM, by 24 hours, presence or absence of serum)?
A: Significant inhibition

Q: What about the “onset of AMPK activation (phosphorylation)” value (MCF-7 cells [2]; HBB 20 μM, metformin 5 mM) of the same compound?
A: within 30 minutes to 1 hour

Q: And the IC50 (CYP2C8; read-out: IC50, CYP2C8 synthesis of (±)-8,9-EET)?
A: 65 µM

Q: And the IC50 (CYP2C8; read-out: IC50, CYP2C8 synthesis of (±)-11,12-EET)?
A: 50 µM

Q: And the IC50 (CYP2C8; read-out: IC50, CYP2C8 synthesis of (±)-14,15-EET)?
A: 45 µM
